This is an account of results in patent publication US12285407B2, “Bis-indolylmethane derivatives and uses thereof” (The University of The West Indies, priority 2018, dated 2025).

≈ marks a conversion by molar mass, not a printed value. Like-named read-outs stand apart in the source and are kept apart here. Some results are limits rather than exact numbers.

The test system of one assay is Bacillus cereus. Kind of assay: Adjuvant broth microdilution (antibiotic MIC with SP-BIM at 50 μg/mL). To be noted: antibiotic alone, Table 9. Type of assay: cell-based.
The next assay concerns clinical strains of MRSA. Description: Kirby Bauer disc diffusion susceptibility profile. Type of assay: cell-based, Staphylococcus aureus. To be noted: for Zone of clearance: 35° C., 24 hours, average n=3; for Interpretive standard (resistant/susceptible): zones vs EUCAST breakpoints (Table 30).
Another assay concerns Escherichia coli O157:H7. Type of assay: cell-based. As to conditions: antibiotic alone, no SP-BIM.
Assay [1] relates to Pseudomonas aeruginosa. Description: Adjuvant broth microdilution (antibiotic MIC with SP-BIM at 50 μg/mL). It counts as cell-based. As to conditions: antibiotic alone.
Assay [2] deals with Pseudomonas aeruginosa. Kind of assay: Rescue concentrations of SP-BIM that reactivate antibiotic. It counts as cell-based. To be noted: P. aeruginosa; for MIC: Pseudomonas aeruginosa, agent alone, read-out: MIC (single agent).
The test system of another assay is Enterobacter cloacae. Kind of assay: Adjuvant broth microdilution (antibiotic MIC with SP-BIM at 50 μg/mL). Type of assay: cell-based. As to conditions: antibiotic alone.
The next assay concerns Enterococcus faecalis. Described as above. As to conditions: antibiotic alone. Type of assay: cell-based.
Another assay relates to Klebsiella pneumoniae. The assay is described as above. Type of assay: cell-based. To be noted: Klebsiella pneumonia; antibiotic alone, no SP-BIM.
In the next assay the test system is MRSA. Described as above. It counts as cell-based, Staphylococcus aureus. As to conditions: antibiotic alone, Table 8 (series SP-BIMs 21-29).
Assay [3] relates to Klebsiella pneumoniae ATCC 49472. Kind of assay: Broth microdilution MIC of SP-BIMs. It counts as cell-based. As to conditions: ATCC49472, SP-BIM alone, read-out: MIC Klebisella pneumoniae ATCC 49472.
The test system of assay [4] is Candida albicans ATCC 22972. Kind of assay: Broth microdilution MIC of SP-BIMs. Type of assay: cell-based. As to conditions: ATCC22972, SP-BIM alone, read-out: MIC Candida albicans ATCC 22972.
The test system of assay [5] is Corynebacterium diphtheriae ATCC 27010. Description: Broth microdilution MIC of SP-BIMs. Type of assay: cell-based. As to conditions: ATCC27010, SP-BIM alone, read-out: MIC Corynebacterium diphtheriae ATCC 27010.
In assay [6] the test system is Staphylococcus aureus ATCC 12600. Kind of assay: Broth microdilution MIC of SP-BIMs. It counts as cell-based. As to conditions: ATCC12600, SP-BIM alone, read-out: MIC Staphylococcus aureus ATCC 12600.
For assay [7], the system named is Enterococcus faecium ATCC 19434. Description: Broth microdilution MIC of SP-BIMs. Type of assay: cell-based. As to conditions: ATCC19434, SP-BIM alone, read-out: MIC Enterococcus faecium ATCC 19434.
The test system of assay [8] is Salmonella typhimurium ATCC 14028. Description: Broth microdilution MIC of SP-BIMs. It counts as cell-based. To be noted: Salmonella enterica, read-out: MIC Salmonella tvpkimurium ATCC 14028. In outline:
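S. typhimurium at ~10^6 CFU mL^−1 in cation-adjusted Mueller Hinton broth was exposed to twofold compound dilutions from 250 to 0.02 μg mL^−1 at 35° C. for 18 hours. Resazurin was then added, with 1 hour of shaking. MIC was the lowest concentration showing no blue-to-pink colour change.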

For assay [9], the system named is Escherichia coli ATCC 35218. Description: Broth microdilution MIC of SP-BIMs. To be noted: ATCC35218, SP-BIM alone, read-out: MIC Escherichia coli ATCC 35218. Type of assay: cell-based.
In the next assay the test system is Streptococcus pneumoniae. Kind of assay: Adjuvant broth microdilution (antibiotic MIC with SP-BIM at 50 μg/mL). Type of assay: cell-based. As to conditions: Streptococcus pneumoniae, Streptococcus pneumonia, SP-BIM at 50 μg mL^−1.
Assay [10] has as its system Pseudomonas aeruginosa ATCC 27853. Kind of assay: Broth microdilution MIC of SP-BIMs. It counts as cell-based. As to conditions: ATCC27853, SP-BIM alone, read-out: MIC Pseudomonas aeruginosa ATCC 27853.
The subject of assay [11] is Streptococcus pyogenes ATCC 19615. Description: Broth microdilution MIC of SP-BIMs. Type of assay: cell-based. To be noted: ATCC19615, SP-BIM alone, read-out: MIC Streptococcus pyogenes ATCC 19615.
For assay [12], the system named is Bacillus cereus ATCC 14579. Description: Broth microdilution MIC of SP-BIMs. Type of assay: cell-based. As to conditions: ATCC14579, SP-BIM alone, read-out: MIC Bacillus cereus ATCC 14579.
The subject of assay [13] is panel of ATCC reference pathogen strains. Description: Broth microdilution MIC of SP-BIMs, panel summary in text. It counts as cell-based. An excerpt:
Reference microorganisms used in this study included: Bacillus cereus (American Type Culture Collection (ATCC) No. 14579), Streptococcus pyogenes (ATCC No. 19615), Staphylococcus aureus (ATCC No. 12600), Enterococcus faecium (ATCC No. 19434), Corynebacterium diphtheriae (ATCC No. 27010), Escherichia coli (ATCC No. 35218), Salmonella typhimurium (ATCC No. 14028), Pseudomonas aeruginosa (ATCC No. 27853), Klebsiella pneumoniae (ATCC No. 49472), and Candida albicans (ATCC No. 22972).
Prior to each experiment, cultures were streaked onto clean BHI agar plates and incubated at 35° C. for 24 hours. Colonies of the respective cultures were selected and inoculated in phosphate buffer saline (pH 7.5) to a 0.5 McFarland turbidity standard (equivalent to 10^8 CFU mL^−1). […]
To assess the antibiotic properties of the library of SP-BIMs, the broth microdilution assay was performed in 96-well microplates according to the Clinical and Laboratory Standards Institute 2014 Guidelines (CLSI 2014). […] The MIC was recorded as the well with the lowest concentration of test compound where no color change was observed.
The antimicrobial activity of the library of substituted [bis(indol-3yl)]methanes was assessed against a panel of ATCC reference pathogen strains of clinical relevance. […]

The mark [14] stands for this setting: read-out: MIC of Kanamvcin with SP-BIM.
[15] abbreviates: read-out: MIC of Vancomvcin with SP-BIM.

On to `O=C(N[C@H](CO)[C@H](O)c1ccc([N+](=O)[O-])cc1)C(Cl)Cl` [Chloramphenicol, chloramphenicol], for which the “MIC of antibiotic, No Compound” value with Bacillus cereus is 4 µg/mL; with Escherichia coli O157:H7 it was 8 µg/mL; with Pseudomonas aeruginosa [1], 250 µg/mL; in the assay with Enterobacter cloacae it was 16 µg/mL; in the assay on Enterococcus faecalis it was 250 µg/mL; with Klebsiella pneumoniae, above 250 µg/mL. For the same compound, in the assay with MRSA, the “MIC of antibiotic, No Compound” value is below 0.5 µg/mL. In addition, the Zone of clearance in the assay with clinical strains of MRSA (MRSA strain 1594) worked out at 18.5 mm; in the assay on clinical strains of MRSA (MRSA strain 1621), 24.5 mm; in the assay with clinical strains of MRSA (MRSA strain 5455), 22.0 mm; in the assay with clinical strains of MRSA (MRSA strain 5872) it was 20.5 mm; in the assay on clinical strains of MRSA (MRSA strain 7153), 18.0 mm; in the assay on clinical strains of MRSA (MRSA strain 7172), 19.5 mm. Moreover, the values for the Zone of clearance in the assay with clinical strains of MRSA (MRSA strain 7698) and in the assay on clinical strains of MRSA (MRSA strain 10132) were 16.5 mm and 21.5 mm, respectively. Further, the “Interpretive standard (resistant/susceptible)” value with clinical strains of MRSA (MRSA strain 1594), in the assay on clinical strains of MRSA (MRSA strain 1621), with clinical strains of MRSA (MRSA strain 5455), with clinical strains of MRSA (MRSA strain 5872), in the assay with clinical strains of MRSA (MRSA strain 7153) and in the assay on clinical strains of MRSA (MRSA strain 7172) was “S” throughout. Besides, the “Interpretive standard (resistant/susceptible)” value in the assay with clinical strains of MRSA (MRSA strain 7698) and with clinical strains of MRSA (MRSA strain 10132) was “S” in each case. For the same compound, the minimal inhibitory concentration (MIC) with Pseudomonas aeruginosa [2] is 250 µg/mL (≈ 774 µM).

On to `c1ccc(C(c2c[nH]c3ccccc23)c2c[nH]c3ccccc23)cc1` [SP-BIM 1, bis(indol-3-yl)-phenylmethane], for which the minimum inhibitory concentration (MIC) in [3] is above 250 µg/mL; in [4], 250 µg/mL; in [5], 125 µg/mL; in assay [6], above 250 µg/mL; in [7] it was 52 µg/mL; in assay [8], 250 µg/mL. For the same compound, the MIC in assay [9] was above 250 µg/mL; in the assay on Streptococcus pneumoniae (setting [14]), 125 µg/mL; with Streptococcus pneumoniae (setting [15]), 1 µg/mL; in [10], 250 µg/mL; in assay [11], 83 µg/mL; in assay [12] it was 83 µg/mL. Also, the “antibacterial activity” value in [13] was “displayed antibacterial activity, and only against Gram-positive bacteria”.

With `c1ccc2c(C(c3ncc[nH]3)c3c[nH]c4ccccc34)c[nH]c2c1` [SP-BIM 4, [bis(indol-3-yl)imidazol-2-yl]methane], the MIC in [3] is above 250 µg/mL; in assay [4], 250 µg/mL; in assay [5], 166 µg/mL; in [6], 166 µg/mL; in assay [7], 104 µg/mL; in assay [8] it was 250 µg/mL. For the same compound, the MIC in assay [9] is above 250 µg/mL; with Streptococcus pneumoniae (setting [14]), 125 µg/mL; in the assay with Streptococcus pneumoniae (setting [15]), 1 µg/mL; in [10], 250 µg/mL; in assay [11], 104 µg/mL; in [12], 125 µg/mL. For the same compound, in assay [13], the “antibacterial activity” value was “displayed antibacterial activity, and only against Gram-positive bacteria”.

As for `Oc1ccc2c(C(c3ccc(Br)cc3)c3c[nH]c4cc(O)ccc34)c[nH]c2c1` [SP-BIM 23, 3,3′-((4-bromophenyl)methylene)bis(1H-indol-6-ol)], in the assay with Pseudomonas aeruginosa [2], the “MIC of chloramphenicol in combination with 64 μg/mL SP-BIM 23” value is 4 µg/mL and the MIC is above 250 µg/mL.
